In patent US20260157967A1, “METHOD FOR PREPARING MEDICINES, HAVING REDUCED PRODUCTION TIME AND IMPROVED STABILITY” (DR.INB CO., priority 2021, published 2026):

Tested on: cancer cells (PANC-1)
Assay: CCK8 assay of the efficiency of killing cancer cells, with or without laser irradiation (FIG. 4)
Assay type: cell-based
Conditions: PANC-1, FIG. 4a, docetaxel treatment at various concentrations
Method: 1 g of polyvinylpyrrolidone (PVP, Sigma-Aldrich) was dissolved in 20 g of ultrapure water and stirred in a mixing chamber at 1500 RPM for 30 minutes to obtain an aqueous PVP solution. Subsequently, 131.7 mg of potassium hexacyanoferrate (III) trihydrate (K3Fe(CN)6·3H2O, Sigma-Aldrich) was dissolved in 20 g of ultrapure water and mixed with the aqueous PVP solution. Then, 400 μl of 1 M HCl (Sigma-Aldrich) was added to the mixing chamber and vortexed at 60 J/s. After movement through an injection pipe, the solution thus prepared was subjected to a step of allowing gas to flow at a high speed on the inner boundary of a reaction chamber and in a liquid cutting tube at an applied voltage of 30 kV, a distance of 25 cm between the reaction chamber and the end of the injection pipe, and a temperature of 140° C. As indicated by the green arrows in FIG. 1, the gas is moved toward the upper portion of the reaction chamber through a structure in which the boundary of the reaction chamber and the liquid cutting tube are at 0.29 rad and the gap of the boundary is 900 nm. As the gas passed, the prepared solution was cut into small pieces. The cut liquid received heat in the reaction chamber and the temperature thereof rose quickly compared to bulk liquid having the same total volume (40 ml) due to heat transfer within the liquid (FIG. 3). […]

Q: How did the “efficiency of killing cancer cells” value turn out when `CC(=O)O[C@@]12CO[C@@H]1C[C@H](O)[C@@]1(C)C(=O)[C@H](O)C3=C(C)[C@@H](OC(=O)[C@H](O)[C@@H](NC(=O)OC(C)(C)C)c4ccccc4)C[C@@](O)([C@@H](OC(=O)c4ccccc4)[C@H]21)C3(C)C` [docetaxel] was run?
A: Its value is “increased the efficiency of killing cancer cells with an increase in the treatment concentration”.
